Results as given in US20120122936A1, “LEAVE-ON NONSOLID SKIN CONDITIONING COMPOSITIONS CONTAINING 12-[(12-HYDROXYOCTADECANOYL)OXY] OCTADECANOIC ACID” (CONOPCO, INC., D/B/A UNILEVER, priority 2010, published 2012).

Legend:
[1] = Observation of mixtures with lipophilic cosmetically acceptable carriers (gelling vs flowable liquid); type: physicochemical; conditions: for Result of mixtures with indicated carriers: 10% in 90% carrier, summary of Table 3
Protocol: Various mixtures were prepared with common lipohilic cosmetically acceptable carrier that are liquid at temperatures up to 40° C. Observation were recorded in Table 3.

[2] = test system: primary human keratinocytes; test: Involucrin expression (differentiation) in primary human keratinocytes, Western blot; type: cell-based; conditions: for Involucrin expression (arbitrary unit) at day 1: day 1 (24 h), 0.1% DMSO control 27.85; for Involucrin expression (arbitrary unit) at day 2: day 2 (48 h), 0.1% DMSO control 33.91; for Effect on human keratinocyte differentiation (involucrin expression compared to vehicle control): vs 0.1% DMSO, day 2
Protocol: The effect of 12HSA and 12-[(12-hydroxyoctadecanoyl)oxy]octadecanoic acid on differentiation in primary human keratinocytes was evaluated.
The compounds were dissolved in DMSO at 10 mM as the initial stock solutions and then diluted to appropriate final concentrations, 0.1 μM, 1 μM, 10 μM for 12-[(12-hydroxyoctadecanoyl)oxy]octadecanoic acid and 1 μM, 10 μM for the monomer with culture medium for treatments. 0.1% DMSO was used as the vehicle control. Primary human keratinocytes (Passage 2) grown to 70% confluency in EpiLife medium (Gibco MEP1500CA, 0.06 mM Calcium), trypsinized, cell number counted and Re-suspended in medium to make final cell counts at 5×10^4/ml. 100, 000 cells seeded per well in a 6 well plate. The cells again grown to 70% confluency, and then treated with 12-HSA monomer, 12-[(12-hydroxyoctadecanoyl)oxy]octadecanoic acid, and 0.1% DMSO as control. Treated cells incubated for 24 h and 48 h, and harvested at the corresponding time points. Proteins were extracted from the cultures and protein concentration was quantified by Quick start Bradford dye reagent (BioRad #500-0205). 5 ug protein samples were subjected to 4-20% protein gel (BioRad Criterion #345-0034), separated by running gel at 175 Volt for about 1 hour. Proteins were transferred to PVDF membrane (iBlot Gel transfer stacks PVDF, Invitrogen IB4010-01). The PVDF membrane was blocked in 1% BSA/PBS for 30 min and incubated with involucrin primary antibody (1:4000 dilution) in 1% BSA/PBS at 4° C. O/N (Sigma 19018), washed three times with TBS-Tween (Sigma T-9039) for 15 min each. The membrane then incubated with a secondary antibody in 1% BSA/PBS at RT for 1 h (Cy5-conjugated Affipure Goat anti mouse IgG, Jackson ImmunoResearch Lab #115-175-003), washed three times with TBS-Tween for 15 min each, and scanned with Licor/Odyssey (Li-Cor Bioscience). The images obtained were analyzed for the involucrin bands for signal intensity by Odyssey v3.0 analysis program (Li-Cor Bioscience).

[3] = test system: primary human neonatal fibroblasts; test: ATP production by primary human fibroblasts, CellTiter-Glo luminescent cell viability assay; type: cell-based; conditions: for Luminescence reading (average): 2 x 24 h dosing, 4 wells, 0.1% DMSO control 2245457; for Effect on fibroblast energy production (ATP, luminescence readings): statistically significant improvement at 100 μM
Protocol: The effect of 12HSA and 12-[(12-hydroxyoctadecanoyl)oxy]octadecanoic acid on ATP production by primary human fibroblasts was assayed.
The samples were prepared as in Example 2, except the final concentrations were at 0.1 μM, 1 μM, 10 μM, 100 μM for both compounds. Again 0.1% DMSO in media is used as the vehicle control. Primary human neonatal fibroblasts grown in DMEM medium (high glucose supplemented with 2 mM Lglutamine, 10% fetal bovine serum, antibiotic) to 70% confluency, trypsinized, and re-suspended in medium. 7,500 cells seeded per well in the inner 60 wells of a 96-well plate in the same DMEM medium and grown for 3 days. The medium removed and the cells washed with serum-free DMEM, and then dosed with 200 μl serum-free DMEM medium containing appropriate concentrations of the testing compounds. Each dosing was replicated in 4 wells. After 24 hours, test compound solution was removed and the cells were treated with a fresh solution of the same treatment. After another 24 hours, the ATP production of the cultures was assayed by CellTiter-Glo luminescent Cell viability assay (Promega #G7572) and luminescence readings measured. Average readings were calculated for every treatment.
Statistical analysis was done by student t-Test with the assumption that the two samples had two tailed distribution with equal variance.

Row | Structure (SMILES) | Observations ([1]; 10% in 90% DC200-10cS) | Observations ([1]; 10% in 90% Light Mineral Oil) | Observations ([1]; 10% in 90% Sunflower seed oil) | Observations ([1]; 10% in 90% Tween40) | Result of mixtures with indicated carriers [1] | Observations ([1]; 10% in 90% cyclomethicone-D5) | Observations ([1]; 10% in 90% isostearyl alcohol) | Observations ([1]; 10% in 90% oleic acid) | Involucrin expression (arbitrary unit) at day 1 ([2]; 1 μM) [arbitrary unit] | Involucrin expression (arbitrary unit) at day 2 ([2]; 1 μM) [arbitrary unit] | Involucrin expression (arbitrary unit) at day 1 ([2]; 10 μM) [arbitrary unit] | Involucrin expression (arbitrary unit) at day 2 ([2]; 10 μM) [arbitrary unit] | Effect on human keratinocyte differentiation (involucrin expression compared to vehicle control) [2] | Luminescence reading (average) ([3]; 0.1 μM) | Luminescence reading (average) ([3]; 1 μM) | Luminescence reading (average) ([3]; 10 μM) | Luminescence reading (average) ([3]; 100 μM) | Effect on fibroblast energy production (ATP, luminescence readings) [3] | also measured
1 | CCCCCCC(O)CCCCCCCCCCC(=O)O (stereo not shown) [12HSA, 12-hydroxyoctadecanoic acid, reference compound] | paste | hard gel | hard gel | gel | gelled the carrier | soft gel | gel | gel | 26.7 | 56.03 | 34.51 | 69.52 | stimulated human keratinocyte differentiation | 2359722 | 2398308 | 2304763 | 2151797 | did not | Observations ([1]; 10% in 90% Isopropyl palmitate): hard gel
2 | CCCCCCC(O)CCCCCCCCCCC(=O)OC(CCCCCC)CCCCCCCCCCC(=O)O (stereo not shown) [12-[(12-hydroxyoctadecanoyl)oxy]octadecanoic acid] | flowable | flowable | clear | clear | flowable, or even clear, liquids | flowable | clear | clear | 36.67 | 33.14 | 33.77 | 29.46 | did not have an effect | 2261382 | 2550326 | 2594799 | 2794979 | stimulated fibroblast energy production | Observations ([1]; 10% in 90% Isopropyl myristate): liquid; Involucrin expression (arbitrary unit) at day 1 ([2]; 0.1 μM): 35.85 arbitrary unit; Involucrin expression (arbitrary unit) at day 2 ([2]; 0.1 μM): 32.61 arbitrary unit
